From US10743544B2, “Method for inactivating Cronobacter sakazakii” (priority 2015, dated 2020)
Entries after “also recorded” stand apart in the source; their conditions may differ.

Assays:
[1] = pH of rehydrated PIF after addition of natural extract (pH meter); type: physicochemical; details: 5 mg/mL added to rehydrated PIF (initial pH 6.82)
Procedure: (§1) A commercial PIF (Wondersun, Harbin, Hei Longjiang Province, China) was purchased and reconstituted according to the manufacturer's instruction. Briefly, 15 g of the PIF was reconstituted in 100 mL of sterile distilled water. 5 mg/mL TP, malic acid, citric acid or ascorbic acid (VC) was added to the rehydrated PIF, and shaken gently to make sure that it was fully dissolved. A pH meter was used to determine the pH of all the solutions. The initial pH of rehydrated PIF was 6.82 and it dropped to pH 3.62, pH 3.55, pH 4.55 and pH 6.46 after added 5 mg/mL malic acid, citric acid, VC and TP, respectively. The final concentration of the natural extract solutions was 0.5% and the milk powder solutions were packed into different test tubes with 9 ml solution in each tube. Milk powder solution without any natural extract product was used as the control group.

[2] = test system: Cronobacter sakazakii strains ES45, ES46, ES37, and ES39; test: Tolerance of C. sakazakii to different natural extracts in PIF, plate count (FIG. 1); type: cell-based; details: 0.5% in PIF, pH not adjusted, four strains; for growth trend of C. sakazakii (plate count): 37° C., up to 7 hours
Procedure: as §1
1 mL of 8.0 Log CFU/mL cell suspensions of four C. sakazakii strains were separately added to 9 mL rehydrated PIF with different natural extracts prepared above to obtain final concentrations of approximately 7.0 Log CFU/mL. The cell suspensions with different natural extracts were incubated at 37° C. for 1, 3, 5 and 7 hours, and mixed to make sure that the solutions were homogeneous. After serial dilution with NS, 0.1 mL of appropriately diluted cultures were spread-plated on TSA plates and incubated upside down at 37° C. overnight to observe the growth of Cronobacter sakazakii.
The tolerance of four different ST types of Cronobacter sakazakii to different natural extracts was studied by serial dilution plate count method. The cell suspensions were separately added to PIF containing 0.5% tea polyphenols, 0.5% VC, 0.5% malic acid or 0.5% citric acid. The pH of each solution was measured using a pH meter and the plate count analysis was carried out at different time points of incubation.

[3] = test system: Cronobacter sakazakii strains ES45, ES46, ES37 and ES39; test: Tolerance of C. sakazakii to acidified natural extracts in PIF, pH 3.55 (FIG. 2); type: cell-based; details: 0.5% in PIF, pH 3.55 versus unadjusted pH
Procedure: A commercial PIF (Wondersun, Harbin, Hei Longjiang Province, China) was purchased and reconstituted according to the manufacturer's instruction. Briefly, 15 g of the PIF was reconstituted in 100 mL of sterile distilled water. 5 mg/mL TP was added to the rehydrated PIF and shaken gently to make sure it was fully dissolved. As controls, malic acid, citric acid and VC were dissolved in PIF in the same way as that of TP. A pH meter was used to determine the pH of all solutions. The initial pH of rehydrated PIF was 6.82 and the value of pH dropped to pH 3.62, pH 3.55, pH 4.55 and pH 6.46 after addition of 5 mg/mL malic acid, citric acid, VC and TP, respectively. The final concentration of the natural extract solutions was 0.5% (w/v) and PIF solutions were packed into different test tubes, each tube with 9 mL solution. PIF solution without adding additional substance was used as the blank control group.
In order to eliminate the effect of pH on the growth of Cronobacter sakazakii, it is necessary to adjust the pH for each treatment group to be the same. The pH of all the treatment groups was adjusted to pH 3.55 with 4 M HCl and 4M NaOH, which was the minimum pH of all the treatment solutions. The PIF acidified with HCl was used as the control. 1 mL of 8.0 Log CFU/mL cell suspensions of the four C. sakazakii strains were separately added to 9 mL acidified PIF with different natural extracts. […]

SMILES	pH of rehydrated PIF after addition [1]	growth trend of C. sakazakii (plate count) [2]	antibacterial effect in PIF [2]	antibacterial/inhibitory effect after acidification compared with before [3]
O=C1O[C@H]([C@@H](O)CO)C(O)=C1O [VC, ascorbic acid]	4.55	slower growth trend	not obvious	stronger antibacterial activity than before the treatment
O=C(O)CC(O)(CC(=O)O)C(=O)O [citric acid]	3.55	downward trend	some antibacterial effect	not significantly different; also recorded: not significant
O=C(O)CC(O)C(=O)O (centres unmarked) [malic acid]	3.62	did not change much	not obvious	–
